Assay [1] deals with Neuraminidase (NA) of A/Taiwan/1/2013(H7N9) NA-WT (Influenza A virus, UniProt A0A024E3Q2). The assay is classed as biochemical. The settings on record: read-out: IC50, nM ± SD.
The target in assay [2] is Neuraminidase (NA) of A/Washington/01/2007, NA-WT (Influenza A virus, UniProt A7UPN3). It counts as biochemical. Particulars: read-out: IC50, nM ± SD.

For orientation: IC50 means the concentration at which inhibition is half-maximal. Consider `CCC(CC)[C@H](NC(C)=O)[C@@H]1[C@H](O)[C@@H](C(=O)O)C[C@H]1N=C(N)N` [Peramivir, peramivir], for which the IC50 is 0.08 ± 0.02 nM in assay [1] and 0.23 ± 0.03 nM in assay [2].

Values taken from paper PMC6943751 (The Journal of infectious diseases, 2014).
